Source: US9282759B2, “Composition including an unsaponifiable fraction” (LABORATOIRES EXPANSCIENCE, priority 2009, dated 2016)

System: PGE2 production of arthrosis chondrocytes
Assay: PGE2 production of arthrosis chondrocytes (radioimmunoassay of culture media, per μg DNA)
Type: cell-based, human
Conditions: 10 μg/ml of the composition in culture medium, 48 h, chondrocytes of osteoarthritis patients, compared with basal conditions (9±4 pg PGE2 per μg DNA)
Method: Thin slices of cartilage of patients suffering from osteoarthritis were excised while avoiding the calcified layer. They were washed several times in DMEM medium containing HEPES, penicillin and streptomycin. The slices of cartilage were then cut into small fragments of a few cubic millimeters.
Chondrocytes were then isolated from the extracellular matrix by a succession of enzymatic digestions. The cartilage fragments were incubated at 37° C. under constant agitation in the basic medium with, successively, hyaluronidase, pronase E and finally with clostridial collagenase.
The cells were then filtered through a 70 μm nylon membrane, washed with DMEM and counted using a Neubauer plate. […]
The cultures were maintained at 37° C. in an atmosphere of 95% air and 5% CO2. At the end of the incubation period, the culture media were taken and stored at −20° C. until they were analysed. […]
Deoxyribonucleic acid (DNA) was quantified according to the technique of Labarca and Paigen (Labarca C. and Paigen K. A simple, rapid, and sensitive DNA assay procedure, Anal Biochem, 1980. 102: 344-52). This method is based on the principle of fluorescence emitted by a reagent, bis-benzimidazole, when it binds to DNA. […] After 1 h of incubation, the samples were read with a fluorometer using an excitation wavelength of 356 nm and an emission wavelength of 458 nm. […]

In the case of vitamin K2 [composition 4], the “quantity of PGE2 produced” value is reported as “remains constant”.
